Measurements from patent publication US8354430B2, “Monohydrochloride salt of 1-[3-[3-(4-chlorophenyl) propoxy]propyl]-piperidine” (priority 2005, dated 2013).

Columns and labels:
[1] = Stability to oxidation conditions (melting points under nitrogen and oxygen atmosphere); format: physicochemical
Protocol: Melting points of the above salts were also determined under nitrogen and oxygen atmosphere, in order to verify their stability to oxidation conditions.

[2] = Aqueous solubility at 23° C.; format: physicochemical; conditions: water
Excerpt: The use of 1-[3-[3-(4-chlorophenyl)propoxy]propyl]-piperidine as the free base is limited because of its oily nature.

[3] = physchem
[4] = Solubility of salts in water at room temperature, pH 4.5 and pH 7.4
[5] = system: mice; assay: Natural forgetting, two-trial object recognition; format: in vivo, mouse; conditions: tacrine 0.25 mg/kg, i.p. after T1
Protocol: Methods: Mice were submitted to the first trial (T1), placed in the box containing two identical objects and the time required by each animal to complete 8 sec of object exploration was determined. Exploration was considered to be directing the nose at a distance closer than 2 cm to the object and/or touching the object. Immediately after the first trial mice were treated with the vehicle or tacrine (0.25 mg/kg, i.p.). […] Mice were placed in the box for 5 min and exploration of each object together with motor activity was determined. The following parameters were measured: […]

Clc1ccc(CCCOCCCN2CCCCC2)cc1.O=C(O)C(=O)O [Hydrogen oxalate, 1-[3-[3-(4-chlorophenyl)propoxy]propyl]-piperidine oxalate, reference compound]
Melting point, N2 atmosphere (stability to oxidation conditions) [1]: 149.16 °C
Melting point, O2 atmosphere (stability to oxidation conditions) [1]: 149.28 °C
solubility [2]: 25 mg/mL
solubility ([3]; pH 4.5, aqueous buffer): 10 to 30 mg/mL
solubility ([3]; pH 7.4, aqueous buffer): 30 to 100 mg/mL
solubility ([3]; water): 10 to 30 mg/mL

Clc1ccc(CCCOCCCN2CCCCC2)cc1 [Hydrogen succinate]
Solubility (% w/v) pH 4.5 ([4]; pH 4.5): >100 % w/v
Solubility (% w/v) pH 7.4 ([4]; pH 7.4): >100 % w/v
Solubility (% w/v) Water room T ([4]; water at room temperature): >100 % w/v
Melting point, N2 atmosphere (stability to oxidation conditions) [1]: 63.21 °C
Melting point, O2 atmosphere (stability to oxidation conditions) [1]: 63.46 °C

Nc1c2c(nc3ccccc13)CCCC2 [tacrine, reference compound]
natural forgetting [5]: significantly reduced

Hydrogen maleate
Melting point, N2 atmosphere (stability to oxidation conditions) [1]: 90.85 °C
Melting point, O2 atmosphere (stability to oxidation conditions) [1]: 90.74 °C
